{
  "source": "paper PMC10764104",
  "about": "“Discovery of Molecular Glue Degraders via Isogenic Morphological Profiling” (ACS Chemical Biology, 2023)",
  "key": {"[1]": {"system": "RKO WT", "assay": "Quantitative expression proteomics to identify degradation targets", "type": "cell-based, human", "conditions": "10 μM, 16 h, n = 2, and adjusted p < 0.01, over 8000 proteins quantified", "source_text": "We selected FL2-14 for target elucidation (circled in black in Figure 2E) based on three criteria (Table S4). First, FL2-14 has low cosine similarity with all of the CRBN-dependent controls (i.e., no thick blue edges). […] Third, it has a unique chemical structure, being the only CRBN binder with the tail group modification 14 predicted to have CRBN-dependent bioactivity (Figure 3A). To elucidate the target for FL2-14, we performed quantitative proteomics to evaluate changes in protein abundances upon treatment with FL2-14. […]\nFigure 3 FL2-14 is a selective GSPT2 molecular glue degrader. […] (B) DMSO-normalized quantitative proteomics after 16 h of treatment with FL2-14 (10 μM) in RKO WT (n = 2). […]\nof the sample sizes of (i.e. number of images in) RKO CRBN OE and RKO CRBN KO data. We, thus, normalized the U scores calculated to allow us to compare U scores for different treatments with varying sample sizes: […]\nComparing the treatment‐centric features of compounds predicted to have CRBN‐dependent bioactivity. […] We then retrieve the matrix of Kendall’s τ‐b correlation coefficients calculated per feature for each compound. […]\nWe then visualized the cosine similarities calculated on a network graph with NetworkX (https://networkx.org, version 3.1), using the spring_layout() with seed set to 500 and iterations set to 200. […]"}, "[2]": {"target": "T1, IKZF1 (Homo sapiens, UniProt Q13422)", "T1 construct": "endogenous in cells; host or cells: MV4.11", "T1 sequence (Q96SW2 whole entry partner)": "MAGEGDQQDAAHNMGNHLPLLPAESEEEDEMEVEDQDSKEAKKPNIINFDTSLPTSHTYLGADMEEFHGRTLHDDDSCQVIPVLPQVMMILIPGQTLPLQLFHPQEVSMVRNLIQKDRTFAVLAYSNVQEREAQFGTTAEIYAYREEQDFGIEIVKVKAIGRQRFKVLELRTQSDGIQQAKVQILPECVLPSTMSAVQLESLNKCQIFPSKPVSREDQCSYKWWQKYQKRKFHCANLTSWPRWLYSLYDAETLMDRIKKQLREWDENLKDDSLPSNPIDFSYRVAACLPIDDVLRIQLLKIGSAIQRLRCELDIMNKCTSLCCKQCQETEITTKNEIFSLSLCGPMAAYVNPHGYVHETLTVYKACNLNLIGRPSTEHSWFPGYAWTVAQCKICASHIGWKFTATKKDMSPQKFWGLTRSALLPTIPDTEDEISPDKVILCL", "T1 sequence (Q16531 2-1140 partner limits assumed)": "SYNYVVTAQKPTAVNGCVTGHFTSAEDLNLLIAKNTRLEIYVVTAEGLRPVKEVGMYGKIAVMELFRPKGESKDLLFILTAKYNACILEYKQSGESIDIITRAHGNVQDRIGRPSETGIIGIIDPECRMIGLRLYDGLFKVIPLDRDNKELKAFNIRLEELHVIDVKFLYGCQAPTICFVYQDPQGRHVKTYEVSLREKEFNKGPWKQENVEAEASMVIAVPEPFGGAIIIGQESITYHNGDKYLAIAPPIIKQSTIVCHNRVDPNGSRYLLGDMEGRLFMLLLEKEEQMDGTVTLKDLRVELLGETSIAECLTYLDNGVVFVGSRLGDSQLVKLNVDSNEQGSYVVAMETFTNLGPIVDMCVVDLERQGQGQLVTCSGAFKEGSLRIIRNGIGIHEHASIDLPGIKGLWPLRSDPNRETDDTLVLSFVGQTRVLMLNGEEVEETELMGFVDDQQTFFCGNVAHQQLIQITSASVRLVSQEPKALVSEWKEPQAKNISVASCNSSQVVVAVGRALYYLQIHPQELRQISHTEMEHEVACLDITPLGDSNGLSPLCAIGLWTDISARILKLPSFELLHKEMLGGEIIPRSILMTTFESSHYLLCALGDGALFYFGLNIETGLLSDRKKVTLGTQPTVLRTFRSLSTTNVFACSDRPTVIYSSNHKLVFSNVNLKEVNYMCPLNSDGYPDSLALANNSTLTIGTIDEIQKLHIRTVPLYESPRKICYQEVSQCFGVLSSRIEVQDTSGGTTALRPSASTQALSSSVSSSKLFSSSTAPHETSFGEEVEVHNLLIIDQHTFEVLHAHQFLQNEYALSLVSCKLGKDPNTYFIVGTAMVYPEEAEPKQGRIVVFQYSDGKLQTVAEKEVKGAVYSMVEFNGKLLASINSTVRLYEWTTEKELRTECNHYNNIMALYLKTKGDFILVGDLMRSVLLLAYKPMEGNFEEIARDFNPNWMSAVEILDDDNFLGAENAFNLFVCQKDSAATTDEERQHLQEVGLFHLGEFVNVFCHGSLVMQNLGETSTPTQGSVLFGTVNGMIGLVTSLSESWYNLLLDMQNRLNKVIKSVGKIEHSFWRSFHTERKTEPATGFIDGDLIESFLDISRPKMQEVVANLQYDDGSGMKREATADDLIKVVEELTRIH", "T1 sequence (Q13422 whole entry)": "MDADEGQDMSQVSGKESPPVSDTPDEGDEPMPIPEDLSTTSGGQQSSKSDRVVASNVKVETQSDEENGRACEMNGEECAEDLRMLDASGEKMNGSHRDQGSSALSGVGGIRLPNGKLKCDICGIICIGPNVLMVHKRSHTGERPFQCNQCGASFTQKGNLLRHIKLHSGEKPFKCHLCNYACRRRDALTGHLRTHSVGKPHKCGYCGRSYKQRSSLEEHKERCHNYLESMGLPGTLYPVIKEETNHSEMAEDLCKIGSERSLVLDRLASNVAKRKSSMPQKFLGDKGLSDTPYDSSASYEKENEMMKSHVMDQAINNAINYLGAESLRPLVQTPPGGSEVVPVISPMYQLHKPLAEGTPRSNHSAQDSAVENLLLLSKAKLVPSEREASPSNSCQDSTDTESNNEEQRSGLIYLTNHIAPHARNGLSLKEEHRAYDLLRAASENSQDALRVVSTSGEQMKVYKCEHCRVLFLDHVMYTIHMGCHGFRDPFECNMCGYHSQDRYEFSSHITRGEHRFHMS", "assay": "Western blot analysis of IKZF1 degradation in MV4.11 cells", "type": "cell-based", "conditions": "16 h"}},
  "data": [
    {"smiles": "CN(Cc1ncc(C2CC2)o1)S(=O)(=O)Oc1ccc(Nc2ccc3c(c2)C(=O)N(C2CCC(=O)NC2=O)C3=O)cc1", "note": "(centres unmarked) [FL2-14]", "values": [
      {"measurement": "proteins significantly downregulated (quantitative proteomics)", "setting": "[1]", "value": "GSPT2, FAM83F, and ZBTB39"},
      {"measurement": "IKZF1 degradation", "setting": "[2]", "value": "did not induce degradation of IKZF1"}
    ]}
  ]
}
